Columns and labels:
L. infantum = assay: Antileishmanial activity against L. infantum amastigotes in THP-1 macrophages; type: cell-based; details: Leishmania infantum; growth of L. infantum in THP-1 macrophages, 72 h
Procedure: The in vitro anti-L. infantum activity (IC50) of each compound was evaluated on THP-1 cells (human leukemia monocytic cell line) infected with L. infantum promastigotes, and the in vitro cytotoxicity (CC50) was determined over the THP-1 cell line. The selectivity index (SI) was calculated as the ratio of the CC50 value determined in the cytotoxicity assay, divided by the IC50 value determined in the antileishmanial activity assay.
Cells derived from the human monocytic strain THP-1 were cultured in complete Rowell Park Memorial Institute (RPMI)-1640 medium (supplemented with 10% fetal bovine serum, 100 U/mL penicillin, and 100 μg/mL streptomycin). Monocytes were differentiated into macrophages by the addition of 20 ng/mL phorbol myristate acetate (PMA). After 72 h, the macrophages (5 × 10^4), in black 96-well microtiter plates (Corning Incorporated, Corning, NY), were infected with Leishmania (Leishmania) infantum (MHOM/BR/1974/PP75) promastigotes transfected with gene tdTomato, on the second day of the stationary phase (20 parasites per macrophage) for 4 h. […] The IC50 values were determined by nonlinear regression using a variable slope model (log(concentration) vs growth inhibition) with the GraphPadPrism v8.2.0 (CA, USA) software. Controls with uninfected cells, untreated infected cells, and infected cells treated with amphotericin B at 0.25 μM (positive control) or DMSO 1% were used. Quadruplicates were run on the same plate, and the experiments were repeated at least once.

L. braziliensis = assay: Inhibition of growth of L. braziliensis in THP-1 macrophages; type: cell-based; details: Leishmania braziliensis
Excerpt: 1 In Vitro Antileishmanial Potency, Selectivity Index, and ADME Properties of Compounds 1 – 6 | column: L. braziliensis IC50 (μM)^b (SI)^b

[1] = PAMPA blood-brain barrier permeability; type: in vitro ADME; details: PAMPA-BBB, pH 7.4; read-out: BBB Pe
Procedure: One mg of each compound was solubilized in ethanol (1 mL) in a 5 mL flask, and an additional 500 μL ethanol and 3.5 mL PBS buffer (pH 7.4) were added to this solution. […] 180 μL of a PBS (pH 7.4)/ethanol (70:30) solution were then added to the wells of a 96-well receiver plate, and 5 μL of a porcine brain lipid solution (20 mg/mL in dodecane) to the wells of a 96-well donor plate. […] Afterward, the donor plate was removed, and the content of the receiver plate was transferred to a UV reading plate, which was read using a microplate reader (SpectraMax 5 – Molecular Devices). A reference sample for the internal correction of the microplate reader was prepared using 180 μL of the PBS (pH 7.4)/ethanol (70:30) solution (adapted from ref ). The optical density values obtained from the content of the receiver plate were compared with the ones obtained from readings performed with the initial solutions containing each compound, before their addition to the donor plate. […] The optical density values for the experimental controls were used to determine the equation of the linear regression (optical density vs P e ), which allowed the determination of the P e value of each compound from the optical density values obtained from the receiver plate, using an in-house Microsoft Excel spreadsheet.

L. infantum GSK-3A = assay: GSK-3A enzyme inhibition (LANCE TR-FRET); type: biochemical; details: concentrations up to 30 μM, 50 nM enzyme
Procedure: The following controls were included: protein in 1% DMSO (100% activity), 10 μM AZD-5438 (0% activity), and buffer without enzyme (blank).
To detect the progress of the enzymatic reaction, a commercially available TR-FRET-based assay (LANCE TR-FRET, PerkinElmer) was used. In the enzymatic step, purified protein kinase and the peptide substrate were incubated with compounds 1 – 6 for 30 min at 25 °C before the addition of ATP to start the reaction, which was run at 30 °C (2 h for GSK-3A or 1 h 15 min for GSK-3B). […]. […]
The fluorescence signal was measured using a CLARIOstar microplate reader (BMG LABTECH) set with an excitation wavelength of 320 nm and an emission wavelength of 665 nm. MARS software (BMG LABTECH) was used to analyze the data obtained after reading each plate. The background fluorescence signal (blank) was subtracted from the fluorescence signal obtained for each reaction, in order to reflect the specific signal of enzymatic activity. The data was then analyzed with the GraphPad Prism v10 software, using the equation “log(inhibitor) vs response - variable slope (four parameters) - Y = Bottom + (Top-Bottom)/(1 + 10̂((LogIC50-X)* HillSlope))” to obtain dose–response curves and determine IC50 values. […]

L. braziliensis Hsp83 = assay: Hsp83 interaction by differential scanning fluorimetry; type: binding, Leishmania braziliensis
Procedure: The assays were performed using an Applied Biosystems 7500 Fast RT-PCR system (Applied Biosystems, Foster City, CA, USA), in triplicate, with 96-well PCR plates (BioRad, Hercules, CA, USA) sealed with transparent capping strips (BioRad, Hercules, CA, USA). The plates were centrifugated for 2 min at 2000 rpm at 25 °C. The temperature was then ramped up from 25 to 85 °C, increasing 1 °C per minute, while fluorescence signals were monitored using SYPRO Orange dye, with an excitation wavelength of 492 nm and an emission wavelength of 610 nm.
The DSF conditions used in this study have been previously described. , Briefly, each well contained 10 μM L. braziliensis Hsp90 or 5 μM L. braziliensis SOD, 1 μL of 5X SYPRO Orange, buffer A (50 mM PBS, 100 mM NaCl, pH 7.0 for L. braziliensis SOD or 50 mM Tris-HCl, 100 mM KCl, pH 8.0 for L. braziliensis Hsp90), and either 1 μL DMSO (5% v/v, negative control) or 1 – 6 (diluted in DMSO). […] Raw fluorescence data was collected using the Applied Biosystems 7500 Fast Software v2.0 and then exported to NAMI for Tm calculation via the first-derivative method. Differences in Tm values (ΔTm) were considered statistically significant when p < 0.05, as determined by the Kruskal–Wallis test followed by Dunn’s post-test for multiple comparisons, performed using GraphPad Prism 10.0 (GraphPad Software, San Diego, CA, USA, www.graphpad.com).

SMILES | IC50 (L. infantum) [µM] | IC50 (L. braziliensis) [µM] | Papp at 0.2 mg/mL [1] [×10⁻⁶ cm/s] | inhibition of L. infantum GSK-3A (L. infantum GSK-3A) | interaction with L. braziliensis Hsp83 (DSF titration curves) (L. braziliensis Hsp83; 100 μM to 12.5 μM) | effect on Tm of L. braziliensis Hsp83 (DSF) (L. braziliensis Hsp83; 100 μM)
O=C(c1ccc(O)c(Cl)c1)N1CCN(c2cnccn2)CC1 [Compound 1, (3-Chloro-4-hydroxyphenyl)(4-(pyrazin-2-yl)piperazin-1-yl)methanone] | 11.9 ± 2.2 | 11.7 ± 0.7 | 0.52 | did not exert any inhibition | neither of these compounds interacts | 
O=C(c1ccc(O)cc1)N1CCN(c2cnccn2)CC1 [Compound 2, (4-Hydroxyphenyl)(4-(pyrazin-2-yl)piperazin-1-yl)methanone] | 3.1 ± 1.3 | 7.6 ± 3.2 | 0.55 | no inhibitory effect |  | failed to exert statistically significant effects

From publication PMC12384620, “Hit-to-Lead Studies of Pyrazinylpiperazines against Visceral Leishmaniasis: Pharmacokinetic Profile and In Vivo Efficacy of Potent Compounds against Leishmania infantum” (ACS Pharmacology & Translational Science, 2025)
